One experiment deals with HeLa. Kind of experiment: Cytotoxic activity against HeLa S3 cells. As to conditions: Homo sapiens. It counts as functional, cell-based.
The test system of experiment [1] is L1210 (1565). Description: Cytotoxic activity against L-1210 parental cell line. The class given is functional, cell-based, Mus musculus.
A short description of experiment [2]: Relative resistance value of Adriamycin resistant L-1210/L-1210 parental cell line. It counts as functional.
Experiment [3] deals with L1210 (1565). Kind of experiment: Cytotoxic activity against adriamycin (ADR) resistant L-1210 cell line. The class given is functional, cell-based, Mus musculus.
In experiment [4] the test system is L1210 (1565). Kind of experiment: cytotoxic activity against adriamycin (ADR) resistant L-1210 cell line. The class given is functional, cell-based, Mus musculus.

SMILES strings stand for the structures. Values after ≈ are worked out from the molar mass of the structure shown. Some results are limits rather than exact numbers.

The compound `CC(=O)OCC1=CCC(C)(C)CC1=O` yielded an IC50 with HeLa of 23.5 µg/mL (≈ 120 µM).

As for `CC1(C)CC=C(CI)C(=O)C1`, the IC50 in the experiment with HeLa turned out to be 2.3 µg/mL (≈ 8.71 µM).

Regarding `C/C=C/C(=O)OCC1=CCC(C)(C)CC1=O`, in the experiment with HeLa, the IC50 worked out at 4.7 µg/mL (≈ 21.1 µM).

For the compound `COc1cccc2c1C(=O)c1c(O)c3c(c(O)c1C2=O)C[C@@](O)(C(C)=O)C[C@@H]3OC1CC(NC(=O)OCC2=CCC(C)(C)CC2=O)C(O)C(C)O1` (some centres undefined), the IC50 in the experiment with L1210 (1565) [1] came to 0.038 nM ml-1; with HeLa, 0.0096 µg/mL (≈ 0.0136 µM); with L1210 (1565) [3], 0.14 nM ml-1. The Ratio in experiment [2] is 3.7.

Take `COc1cccc2c1C(=O)c1c(O)c3c(c(O)c1C2=O)C[C@@](O)(C(C)=O)C[C@@H]3O[C@H]1C[C@H](N)[C@H](O)[C@H](C)O1.Cl` [DAUNORUBICIN HYDROCHLORIDE]: the values for the IC50 with L1210 (1565) [1] and in the experiment with L1210 (1565) [3] were 0.016 nM ml-1 and 0.147 nM ml-1, respectively. Also, the Ratio in experiment [2] is given as 9.2.

In the experiment with HeLa, `CC1(C)CC=C(CO)C(=O)C1` came in with an IC50 above 100 µg/mL.

On to `COc1cccc2c1C(=O)c1c(O)c3c(c(O)c1C2=O)C[C@@](O)(C(=O)CO)C[C@@H]3O[C@H]1C[C@H](N)[C@H](O)[C@H](C)O1` [DOXORUBICIN], for which the IC50 is reported as 0.022 nM ml-1 with L1210 (1565) [1] and 0.315 nM ml-1 in the experiment with L1210 (1565) [4]. Also, the Ratio in experiment [2] is reported as 14.1.

The record behind these values is ChEMBL document CHEMBL1128855, “Design and synthesis of an antitumor prodrug released by the reaction with sulfhydryl compounds” (Bioorg Med Chem Lett, 1995).
